Results published in patent publication US20070048372A1, “Method for treating non-inflammatory osteoarthritic pain” (SRZ Properties, Inc., priority 2005, published 2007).
Entries after “also recorded” stand apart in the source; their conditions may differ.

Columns and labels:
[1] = system: rat formalin paw test (late phase); experiment: Rat formalin paw test (late phase): number of flinches and licking time; type: in vivo, rat (Rj: Wistar (Han)); settings: Example 7
Method: Rats were given an intraplantar injection of 5% formalin (50 μl) into the posterior left paw. This treatment induces a recognizable flinching and licking response of the affected paw in control animals. The number of flinches was counted for 15 minutes, beginning 20 minutes after injection of formalin. The time spent licking the affected paw was also recorded.
Male Rj: Wistar (Han) rats, 10 per group, weighing 100-130 g at the beginning of the experiments were studied per group. The test was performed blind.
Lacosamide (20 mg/kg), gabapentin (50 and 100 mg/kg), combinations of lacosamide (20 mg/kg) with gabapentin (50 and 100 mg/kg), and vehicle were administered i.p. 10 minutes before injection of formalin.
Lacosamide (10 and 20 mg/kg), morphine (2 and 4 mg/kg), combinations of lacosamide (10 and 20 mg/kg) with morphine (2 and 4 mg/kg), and vehicle were administered i.p. 10 minutes before injection of formalin.
Lacosamide (10 mg/kg), duloxetine (8 mg/kg), a combination of lacosamide (10 mg/kg) with duloxetine (8 mg/kg), and vehicle were administered i.p. 10 minutes before injection of formalin.
Lacosamide (10 and 20 mg/kg), memantine (4 and 8 mg/kg), combinations of lacosamide (10 and 20 mg/kg) with memantine (4 and 8 mg/kg), and vehicle were administered i.p. 10 minutes before injection of formalin.
Lacosamide (10 and 20 mg/kg), naproxen (8 and 16 mg/kg), combinations of lacosamide (10 and 20 mg/kg) with […] (8 and 16 mg/kg), and vehicle were administered i.p. 10 minutes before injection of formalin. Morphine (8 mg/kg) was included as a comparative treatment.

[2] = system: monosodium iodoacetate-induced tactile allodynia; experiment: Monosodium iodoacetate-induced tactile allodynia (von Frey filaments); type: in vivo, rat (Wistar); settings: 30 mg/kg s.c., 60 minutes before test
[3] = system: monosodium iodoacetate-induced mechanical hyperalgesia; experiment: Monosodium iodoacetate-induced mechanical hyperalgesia (Randall-Selitto paw pressure); type: in vivo, rat (Wistar); settings: 30 mg/kg s.c.
[4] = system: muscle pressure hyperalgesia induced by TNF; experiment: TNF-induced muscle pressure hyperalgesia (Randall-Selitto, withdrawal threshold to muscle pressure); type: in vivo, rat (Sprague Dawley); settings: for reversal of muscular mechanical hyperalgesia (withdrawal threshold to muscle pressure): 18 h after TNF i.m., 30 to 60 minutes after drug
Method: (§1) Adult male Sprague Dawley rats with a body weight of 250 g to 300 g were used (supplier: Charles River, Sulzfeld, Germany). Animals were group-housed (3 animals per cage) and maintained in a room with controlled temperature (21-22° C.) and a reversed light-dark cycle (12 h/12 h) with food and water available ad libitum. All experiments were approved by the Bavarian State animal experimentation committee and carried out in accordance with its regulations.
(§2) Recombinant rat tumor necrosis factor alpha (herein referred to as TNF) was obtained from R&D Systems, Minneapolis, Minn., U.S.A. TNF was diluted in 0.9% NaCl and used in a concentration of 1 μg in 50 μl. Injections were performed in short halothane narcosis with a 30 g needle bilaterally into the gastrocnemius or into the biceps brachii muscle. All rats were used to the behavioral tests before injections and baseline values were recorded over three test days.
Mechanical withdrawal thresholds to muscle pressure were measured with an analgesimeter (Ugo Basile, Comerio, Italy). The rat was allowed to crawl into a sock which helps the rat to relax. The hind limbs were positioned such that an increasing pressure could be applied onto the gastrocnemius muscle (maximum 250 g). The pressure needed to elicit withdrawal was recorded. Means of 3 trials for each hind limb were calculated (interstimulus interval of >30 sec). Only animals with a significant TNF effect were included for further analysis.
Rats were injected with TNF into the gastrocnemius muscle at 2 pm. Eighteen hours later, rats were tested for pressure hyperalgesia pre- and post-administration of the test drug. Rats were tested for pressure hyperalgesia 30 to 60 minutes after drug administration.
(§3) The rats, initially 10 per group, were treated with either 3, 10 or 30 mg/kg lacosamide, 2 mg/kg metamizol, 30 or 100 mg/kg pregabalin, 100 mg/kg gabapentin, or the NaCl vehicle, i.p. (intraperitoneally). Volume of i.p. injections was 0.5 ml. A pilot study was performed to confirm that i.m. (intramuscular) injection of 1 μg TNF into the gastrocnemius muscle was sufficient to induce pressure hyperalgesia.
(§4) Data are shown in graphs displaying means and standard errors of the means (SEM). Pre- and post-treatment data were compared using ANOVA (analysis of variance) and a Tukey post hoc test. Means of treatment groups were compared using a one-way ANOVA and Dunnett's post hoc test. Maximal possible effects (MPE) were calculated for all types of treatment.

[5] = system: biceps muscle grip strength after TNF-induced muscle pain; experiment: Biceps muscle grip strength after TNF-induced muscle pain; type: in vivo, rat (Sprague Dawley); settings: for reversal of TNF-induced reduction of grip strength: 6 h after TNF i.m., 30 to 60 minutes after drug
Method: as §1, §2
Grip strength of the forelimbs was tested with a digital grip force meter (DFIS series, Chatillon, Greensboro, NC, U.S.A.). The rat was positioned to grab the grid with the forelimbs and was gently pulled so that the grip strength could be recorded. Means of three trials were calculated. The effect of the TNF treatment was calculated for each animal separately and only animals with a significant TNF effect were included for further analysis.
Rats were injected with TNF into the biceps brachii muscle at 8 am. Six hours later, grip strength of the forelimbs was tested with a digital grip force meter. Test drug was administered, and grip strength was again tested after 30 to 60 minutes.
as §3, §4

Structure (SMILES): COc1ccc2cc([C@H](C)C(=O)O)ccc2c1 [Naproxen]
- Licking time % change (a) compared with vehicle control ([1]; 8 mg/kg i.p. alone): +16% (a)
- Licking time (seconds) mean ± SEM ([1]; 8 mg/kg i.p. alone): 222.1 ± 21.1 NS (a) seconds
- No. of flinches % change (a) compared with vehicle control ([1]; 8 mg/kg i.p. alone): +30% (a)
- No. of flinches mean ± SEM ([1]; 8 mg/kg i.p. alone): 148.0 ± 35.5 NS (a)
- Licking time % change (a) compared with vehicle control ([1]; 16 mg/kg i.p. alone): −1% (a)
- Licking time (seconds) mean ± SEM ([1]; 16 mg/kg i.p. alone): 190.1 ± 25.4 NS (a) seconds
- No. of flinches % change (a) compared with vehicle control ([1]; 16 mg/kg i.p. alone): +2% (a)
- No. of flinches mean ± SEM ([1]; 16 mg/kg i.p. alone): 116.6 ± 20.7 NS (a)
- effect on the number of flinches or the time spent licking as compared with vehicle controls ([1]; 8 and 16 mg/kg i.p. alone): did not clearly affect

Structure (SMILES): O=C(O)Cc1ccccc1Nc1c(Cl)cccc1Cl [diclofenac]
- tactile allodynia of iodoacetate-treated rats (von Frey) ([2]; day 3): had no effect
- tactile allodynia of iodoacetate-treated rats (von Frey) ([2]; day 7): had no effect
- tactile allodynia of iodoacetate-treated rats (von Frey) ([2]; day 14): had no effect
- paw pressure withdrawal threshold compared to iodoacetate/vehicle treated animals (mechanical hyperalgesia) ([3]; day 3): increase in paw pressure withdrawal threshold
- mechanical hyperalgesia (paw pressure withdrawal threshold) ([3]; day 7): reduced mechanical hyperalgesia

Structure (SMILES): Cc1c(N(C)CS(=O)(=O)[O-])c(=O)n(-c2ccccc2)n1C.[Na+] [metamizol]
- MPE (maximal possible effect) on muscle pressure hyperalgesia, compared with vehicle ([4]; 2 mg/kg i.p.): significantly different from vehicle
- reversal of muscular mechanical hyperalgesia (withdrawal threshold to muscle pressure) ([4]; 2 mg/kg i.p.): complete reversal
- MPE (maximal possible effect) on biceps muscle grip strength, compared with vehicle ([5]; 2 mg/kg i.p.): significantly different from vehicle
- reversal of TNF-induced reduction of grip strength ([5]; 2 mg/kg i.p.): significant reversal

Structure (SMILES): CC(C)C[C@H](CN)CC(=O)O [pregabalin]
- MPE (maximal possible effect) on muscle pressure hyperalgesia, compared with vehicle ([4]; 30 mg/kg i.p.): significantly different from vehicle
- reversal of muscular mechanical hyperalgesia (withdrawal threshold to muscle pressure) ([4]; 30 mg/kg i.p.): significant reversal
- MPE (maximal possible effect) on muscle pressure hyperalgesia, compared with vehicle ([4]; 100 mg/kg i.p.): significantly different from vehicle
- reversal of muscular mechanical hyperalgesia (withdrawal threshold to muscle pressure) ([4]; 100 mg/kg i.p.): significant reversal
- full reversal of the muscle hyperalgesia ([4]; doses tested: pregabalin 30 and 100 mg/kg, gabapentin 100 mg/kg i.p.): Neither pregabalin nor gabapentin led to a full reversal
- MPE (maximal possible effect) on biceps muscle grip strength, compared with vehicle ([5]; 100 mg/kg i.p.): significantly different from vehicle
- reversal of TNF-induced reduction of grip strength ([5]; 100 mg/kg i.p.): significant reversal; also recorded: improved grip strength
